Test results published in publication PMC6419571, “Discovery and lead optimisation of a potent, selective and orally bioavailable RARβ agonist for the potential treatment of nerve injury” (Bioorganic & Medicinal Chemistry Letters, 2019).
Marks after values point to notes of the source that are not given here.

Legend:
[1] = biological target: T1, RARα (Mus musculus, UniProt P11416); test: RAR alpha transactivation assay (gal4-RAR LBD fusion, luciferase reporter, COS-7 cells); type: cell-based; details: mouse RAR ligand binding domain; usually three experiments; read-out: α EC50
T1 construct: expressed in transfected cells; host or cells: COS-7
T1 sequence (P11416 183-417 limits assumed): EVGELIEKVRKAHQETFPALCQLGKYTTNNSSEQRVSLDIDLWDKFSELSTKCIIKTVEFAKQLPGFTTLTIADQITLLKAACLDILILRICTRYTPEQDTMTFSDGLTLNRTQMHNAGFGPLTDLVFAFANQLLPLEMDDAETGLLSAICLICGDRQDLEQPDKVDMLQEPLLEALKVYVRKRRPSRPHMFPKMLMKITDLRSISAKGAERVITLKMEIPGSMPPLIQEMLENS
Procedure: (§1) Compounds were tested in transactivation assays at the RAR α, β and γ receptors.
(§2) Transactivation assays for RAR alpha, beta and gamma receptors:
(§3) Transcriptional transactivation assays have been performed with gal4 fusion receptor constructs, created using each of the mouse RAR ligand-binding domains, co-transfected with the pFR-luc (Stratagene) reporter construct in COS-7 cells.
(§4) Briefly, on day one, 96 well plates were seeded with 8000 cells per well then left to recover overnight. On day two, the cells were co-transfected with 100ng of reporter plasmid and 10ng of the appropriate receptor plasmid per well using lipofectamine (Invitrogen). On day three, the lipofectamine containing media was replaced by a DMEM without phenol red, followed by the addition of novel compounds dissolved in 1µl of DMSO to each well’s 100µl total volume. Finally, on day four, the cells were lysed and their luciferase substrate was provided by the BrightGlo reagent (Promega), the plates were then read on the MicroBeta TriLux (Perkin Elmer).
(§5) Data for test compounds are quoted as EC50 values. Where replicate data has been generated the data are quoted as the mean EC50 from the separate experiments.

[2] = biological target: T2, RARβ (Mus musculus, UniProt P22605); test: RAR beta transactivation assay (gal4-RAR LBD fusion, luciferase reporter, COS-7 cells); type: cell-based
T2 construct: expressed in transfected cells; host or cells: COS-7
T2 sequence (P22605 210-444 limits assumed): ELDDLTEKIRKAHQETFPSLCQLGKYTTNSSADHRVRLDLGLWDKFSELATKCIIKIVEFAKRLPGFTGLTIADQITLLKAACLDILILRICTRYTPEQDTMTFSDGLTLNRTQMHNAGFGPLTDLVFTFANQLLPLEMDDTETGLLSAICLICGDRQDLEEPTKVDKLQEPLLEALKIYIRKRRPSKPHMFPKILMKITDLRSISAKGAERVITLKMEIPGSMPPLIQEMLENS
Procedure: as §1, §2, §3, §4, §5

[3] = biological target: T3, RARγ (Mus musculus, UniProt P18911); test: RAR gamma transactivation assay (gal4-RAR LBD fusion, luciferase reporter, COS-7 cells); type: cell-based; details: mouse RAR ligand binding domain; Tables 1 and 4; read-out: γ EC50
T3 construct: expressed in transfected cells; host or cells: COS-7
T3 sequence (P18911 185-419 limits assumed): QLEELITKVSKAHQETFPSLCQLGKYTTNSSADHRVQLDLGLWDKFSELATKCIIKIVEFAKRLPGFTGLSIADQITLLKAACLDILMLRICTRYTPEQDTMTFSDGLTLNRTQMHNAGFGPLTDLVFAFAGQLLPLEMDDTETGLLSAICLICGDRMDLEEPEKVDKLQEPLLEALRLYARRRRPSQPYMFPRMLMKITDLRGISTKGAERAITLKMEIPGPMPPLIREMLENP
Procedure: as §1, §2, §3, §4, §5

[4] = biological target: T4, RARβ (Homo sapiens, UniProt P10826); test: Transactivation against the human RAR ligand-binding domains; type: cell-based
T4 construct: expressed in transfected cells
T4 sequence (P10826 183-417 limits assumed): T2 sequence (P22605 210-444 limits assumed)
Excerpt: The more drug-like template present in 10 translates into a good in vitro and in vivo profile for this RARβ agonist (Table 5).

[5] = LogD by shake flask method; type: physicochemical; details: pH 7.4
[6] = biological target: Cyp450 2C9 (Homo sapiens, UniProt P11712); test: Cyp450 inhibition, 2C9; type: in vitro ADME; details: isoform 2C9
Cyp450 2C9, sequence (P11712 whole entry, canonical isoform): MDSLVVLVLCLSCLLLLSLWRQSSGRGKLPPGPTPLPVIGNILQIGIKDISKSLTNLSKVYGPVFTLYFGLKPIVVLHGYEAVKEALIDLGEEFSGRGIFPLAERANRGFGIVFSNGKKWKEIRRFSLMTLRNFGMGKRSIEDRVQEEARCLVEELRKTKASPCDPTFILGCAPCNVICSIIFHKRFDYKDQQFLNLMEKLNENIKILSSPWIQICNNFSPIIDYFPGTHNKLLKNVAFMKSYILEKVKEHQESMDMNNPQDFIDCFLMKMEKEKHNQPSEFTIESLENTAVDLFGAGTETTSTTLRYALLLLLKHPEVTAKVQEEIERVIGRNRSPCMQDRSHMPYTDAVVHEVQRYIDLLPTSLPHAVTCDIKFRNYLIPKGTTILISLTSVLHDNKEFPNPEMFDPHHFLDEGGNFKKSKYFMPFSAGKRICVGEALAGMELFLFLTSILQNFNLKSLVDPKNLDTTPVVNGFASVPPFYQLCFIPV

[7] = biological target: Cyp450 2C19 (Homo sapiens, UniProt P33261); test: Cyp450 inhibition, 2C19; type: in vitro ADME; details: isoform 2C19
Cyp450 2C19, sequence (P33261 whole entry, canonical isoform): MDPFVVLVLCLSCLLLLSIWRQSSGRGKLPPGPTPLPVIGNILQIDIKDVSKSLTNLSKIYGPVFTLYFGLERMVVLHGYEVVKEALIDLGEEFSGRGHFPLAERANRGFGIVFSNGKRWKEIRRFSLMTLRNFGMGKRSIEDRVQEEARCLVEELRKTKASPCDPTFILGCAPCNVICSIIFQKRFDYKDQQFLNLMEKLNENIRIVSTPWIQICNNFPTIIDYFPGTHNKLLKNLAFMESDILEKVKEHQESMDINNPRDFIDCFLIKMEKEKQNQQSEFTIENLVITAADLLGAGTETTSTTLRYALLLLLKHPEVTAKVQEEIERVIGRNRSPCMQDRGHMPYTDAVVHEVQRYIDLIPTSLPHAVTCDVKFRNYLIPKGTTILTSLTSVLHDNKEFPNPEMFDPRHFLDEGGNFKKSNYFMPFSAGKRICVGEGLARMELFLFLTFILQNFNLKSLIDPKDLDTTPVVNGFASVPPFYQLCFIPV

[8] = biological target: Cyp450 2D6 (Homo sapiens, UniProt P10635); test: Cyp450 inhibition, 2D6; type: in vitro ADME; details: isoform 2D6
Cyp450 2D6, sequence (P10635 whole entry, canonical isoform): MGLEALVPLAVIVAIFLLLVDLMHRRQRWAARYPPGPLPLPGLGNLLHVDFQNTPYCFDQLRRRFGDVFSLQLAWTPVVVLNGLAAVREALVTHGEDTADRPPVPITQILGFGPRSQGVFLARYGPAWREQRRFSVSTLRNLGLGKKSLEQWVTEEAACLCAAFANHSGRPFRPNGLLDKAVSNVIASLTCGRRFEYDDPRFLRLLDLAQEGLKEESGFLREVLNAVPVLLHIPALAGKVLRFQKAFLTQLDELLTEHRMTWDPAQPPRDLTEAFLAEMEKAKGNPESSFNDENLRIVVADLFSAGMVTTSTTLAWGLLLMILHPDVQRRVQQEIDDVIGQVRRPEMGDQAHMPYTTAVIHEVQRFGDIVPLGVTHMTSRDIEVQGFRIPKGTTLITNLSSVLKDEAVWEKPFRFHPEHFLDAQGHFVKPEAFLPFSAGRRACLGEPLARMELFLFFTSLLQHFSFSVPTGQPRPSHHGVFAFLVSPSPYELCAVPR

[9] = biological target: Cyp450 3A4 (Homo sapiens, UniProt P08684); test: Cyp450 inhibition, 3A4; type: in vitro ADME; details: isoform 3A4
Cyp450 3A4, sequence (P08684 whole entry, canonical isoform): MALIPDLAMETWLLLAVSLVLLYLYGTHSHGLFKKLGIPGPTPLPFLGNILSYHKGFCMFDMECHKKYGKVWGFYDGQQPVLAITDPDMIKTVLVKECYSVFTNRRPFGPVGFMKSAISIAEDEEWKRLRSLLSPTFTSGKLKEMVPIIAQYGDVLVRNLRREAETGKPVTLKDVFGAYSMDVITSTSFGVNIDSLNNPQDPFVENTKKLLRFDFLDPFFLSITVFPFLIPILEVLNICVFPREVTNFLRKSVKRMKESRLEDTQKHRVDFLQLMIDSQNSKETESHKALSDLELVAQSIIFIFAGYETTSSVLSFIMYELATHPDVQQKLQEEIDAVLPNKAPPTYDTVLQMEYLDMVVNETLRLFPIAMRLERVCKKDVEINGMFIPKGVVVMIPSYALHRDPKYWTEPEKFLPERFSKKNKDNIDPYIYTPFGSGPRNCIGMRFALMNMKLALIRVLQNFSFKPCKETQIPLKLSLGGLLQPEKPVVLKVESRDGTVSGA

[10] = Human plasma protein binding; type: in vitro ADME
[11] = Mouse plasma protein binding; type: in vitro ADME
[12] = Pharmacokinetics in rat; type: in vivo; set-up: Volume distribution ss: unit not given here
[13] = Pharmacokinetics in dog; type: in vivo; set-up: Volume distribution ss: unit not given here
[14] = tested on: HEPG2 cell; test: HEPG2 cell toxicity assay; type: cell-based; details: highest concentration tested 50 μM
[15] = biological target: HERG channels (Homo sapiens, UniProt Q12809); test: Binding assay for HERG channels; details: at 10 μM
HERG channels, sequence (Q12809 whole entry): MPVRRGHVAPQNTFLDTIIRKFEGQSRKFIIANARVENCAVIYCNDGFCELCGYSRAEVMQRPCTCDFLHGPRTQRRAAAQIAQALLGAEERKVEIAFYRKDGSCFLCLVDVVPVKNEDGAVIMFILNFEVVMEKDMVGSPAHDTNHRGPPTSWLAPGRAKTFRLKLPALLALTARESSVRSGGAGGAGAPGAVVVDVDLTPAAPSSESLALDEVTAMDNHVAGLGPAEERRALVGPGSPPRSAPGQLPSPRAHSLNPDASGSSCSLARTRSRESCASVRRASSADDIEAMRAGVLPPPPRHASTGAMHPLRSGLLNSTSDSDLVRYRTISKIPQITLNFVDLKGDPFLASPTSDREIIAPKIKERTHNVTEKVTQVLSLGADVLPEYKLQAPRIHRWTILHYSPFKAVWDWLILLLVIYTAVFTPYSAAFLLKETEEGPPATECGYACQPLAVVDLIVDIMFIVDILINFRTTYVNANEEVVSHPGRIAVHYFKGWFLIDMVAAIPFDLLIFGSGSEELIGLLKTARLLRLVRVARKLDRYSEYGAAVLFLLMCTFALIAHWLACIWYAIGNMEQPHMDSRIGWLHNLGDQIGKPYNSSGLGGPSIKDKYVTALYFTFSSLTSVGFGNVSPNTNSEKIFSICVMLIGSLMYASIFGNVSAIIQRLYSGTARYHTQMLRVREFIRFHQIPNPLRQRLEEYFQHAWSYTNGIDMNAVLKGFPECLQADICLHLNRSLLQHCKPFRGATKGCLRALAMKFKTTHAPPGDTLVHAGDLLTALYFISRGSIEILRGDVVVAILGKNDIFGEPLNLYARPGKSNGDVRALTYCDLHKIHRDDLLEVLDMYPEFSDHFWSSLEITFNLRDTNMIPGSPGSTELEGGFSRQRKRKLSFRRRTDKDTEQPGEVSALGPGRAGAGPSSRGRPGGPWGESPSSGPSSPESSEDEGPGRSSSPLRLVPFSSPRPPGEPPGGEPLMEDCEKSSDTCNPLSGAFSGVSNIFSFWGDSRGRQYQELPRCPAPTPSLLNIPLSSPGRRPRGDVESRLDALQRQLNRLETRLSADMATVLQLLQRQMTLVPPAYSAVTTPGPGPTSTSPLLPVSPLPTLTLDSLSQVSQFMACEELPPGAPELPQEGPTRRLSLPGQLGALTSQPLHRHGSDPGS

[16] = tested on: bacterial; test: Bacterial cytotoxicity tests; type: cell-based; details: up to 100 μM
[17] = tested on: three bacterial strains; type: cell-based
[18] = tested on: avulsed rats; test: Rodent model of avulsion: sensory and locomotor tasks; type: in vivo, rat; details: 3 mg/kg, po, three times a week
Procedure: Rats were trained for two weeks prior to surgery in behavioural tasks and scores were recorded the day before surgery, the day after surgery and then weekly, for four weeks. Surgery was performed as previously described.[11], [12] In a sticky tape task, the time taken to sense and remove the tape from the paw of the lesioned forelimbs was measured. […] In locomotor tasks, the number of foot slips in a horizontal ladder made by the injured forelimb of the compound 10 treated rats was also measured. […] Further details and data on an in vivo model of crush injury will be presented in due course.
Fig. 2 Effects of oral administration of compound 10 in sensory and locomotor functions in avulsed rats. Dose 3 mg/kg, po, three times a week, every other day. Data represent mean ± SEM of n = 8, **p ≤ 0.005, ***p ≤ 0.001. Two-way repeated-measures ANOVA, Tukey’s post-hoc test.

For `Cc1ccc(C)c2oc(-c3nc(-c4ccc(C(=O)O)cc4)no3)cc12` [Compound 10, 4-(5-(4,7-dimethylbenzofuran-2-yl)-1,2,4-oxadiazol-3-yl)benzoic acid], the EC50 [1] was 26 nM, the “Fold selectivity for β over α” value ([2]; EC50 ratio of α to β, mouse, Tables 1 and 4) was 13 and the “Fold selectivity for β over γ” value ([2]; EC50 ratio of γ to β, mouse) was 5.6. The “agonist behaviour (full/partial) relative to ATRA” value ([2]; maximum upper asymptote within 20% of that found for ATRA) was “full agonist”, the EC50 ([2]; mouse RAR ligand binding domain, usually three experiments, read-out: β EC50) was 1.9 nM and the EC50 [3] was 11 nM. For the same compound, the “fold selectivity for RARβ over RARα” value [4] was 23 fold, the “fold selectivity for RARβ over RARγ” value [4] was 5 fold and the EC50 ([4]; read-out: RARβ potency EC50) was 2.05 nM. For the same compound, the logD [5] was 2.8, the IC50 [6] was > 25000 nM and the IC50 [7] was > 25000 nM. The IC50 [8] was > 25000 nM, the IC50 [9] was > 25000 nM and the fraction unbound [10] was 0.02. It also gave a fraction unbound [11] of 0.05, a clearance ([12]; blood, rat, iv dose 0.5 mg/kg) of 3.7 mL/min/kg and a Tmax ([12]; in vivo, rat, oral doses of 1, 3 and 10 mg/kg) of 1.7 h. The t1/2 ([12]; rat) was 1.4 h, the Volume distribution ss ([12]; rat, iv dose 0.5 mg/kg) was 0.41 and the Fraction absorbed ([12]; rat, mean of 1, 3 and 10 mg/kg oral in comparison to iv 0.5 mg/kg) was 80 ^b %. For the same compound, the oral bioavailability ([12]; rats) was > 40%, the “CNS penetration: brain tissue compared to plasma” value ([12]; rats, 8 h after dosing orally) was “nearly equivalent amounts detected in brain tissue when compared to plasma” and the t1/2 [13] was 2.5 h. For the same compound, the clearance ([13]; blood, iv dose 0.5 mg/kg) was 1.1 mL/min/kg, the bioavailability ([13]; in vivo, po, 3 mg/kg, dogs) was > 40% and the Volume distribution ss ([13]; iv dose 0.5 mg/kg) was 0.23. For the same compound, the Fraction absorbed ([13]; oral 3 mg/kg vs iv 0.5 mg/kg) was 45%, the Tmax ([13]; oral dose 3 mg/kg) was 1.0 h and the “HEPG2 cell toxicity alerts” value [14] was “completely devoid of alerts”. The “HERG channel binding inhibition” value [15] was “no inhibition”, the bacterial cytotoxicity [16] was “inactive” and the Ames test result [17] was “inactive”. The “sticky tape task latency (sense and remove tape), injured forelimb vs vehicle” value ([18]; from week three) was “significantly lower latencies” and the “number of foot slips in horizontal ladder, injured forelimb vs vehicle” value ([18]; from week two) was “markedly lower”.
